Results as given in ChEMBL document CHEMBL1201862, “PubChem BioAssay data set” (2004).
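Step 1: Grow cells in 96-well plates. Step 2: Expose to compound for 48 hours at 5 concentrations. Step 3: Interpolate endpoints linearly; if unreached, use highest concentration. GI50 = concentration required for 50% inhibition of growth.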 Activity calls are given as the source filed them. Rule as the data show it: active = GI50 up to about 1.1 µM and inactive = higher.

Legend:
Assay in all cases: NCI tumour cell line growth inhibition, 48 h
A549 = tested on: A549
ACHN = tested on: ACHN
CCRF-CEM = tested on: CCRF-CEM
COLO 205 = tested on: COLO 205
HCC 2998 = tested on: HCC 2998
HT-29 = tested on: HT-29
LOX IMVI = tested on: LOX IMVI
MCF7 = tested on: MCF7
MDA-MB-231 = tested on: MDA-MB-231
Malme-3M = tested on: Malme-3M
NCI-H460 = tested on: NCI-H460
OVCAR-3 = tested on: OVCAR-3
PC-3 = tested on: PC-3
RXF 393 = tested on: RXF 393
SF-539 = tested on: SF-539
SK-MEL-5 = tested on: SK-MEL-5
SR = tested on: SR
SW-620 = tested on: SW-620
U-251 = tested on: U-251
UO-31 = tested on: UO-31

Row | Structure (SMILES) | GI50 (A549) | GI50 (ACHN) | GI50 (CCRF-CEM) | GI50 (COLO 205) | GI50 (HCC 2998) | GI50 (HT-29) | GI50 (LOX IMVI) | GI50 (MCF7) | GI50 (MDA-MB-231) | GI50 (Malme-3M) | GI50 (NCI-H460) | GI50 (OVCAR-3) | GI50 (PC-3) | GI50 (RXF 393) | GI50 (SF-539) | GI50 (SK-MEL-5) | GI50 (SR) | GI50 (SW-620) | GI50 (U-251) | GI50 (UO-31)
1 | Nc1onc2c1Cc1c(noc1N)-c1ccccc1-2 | 71 µM (inactive) | 35.4 µM (inactive) | 42.7 µM (inactive) | 58.6 µM (inactive) | > 100 µM (inactive) | 80.4 µM (inactive) | 32.6 µM (inactive) | 49.7 µM (inactive) | 35.1 µM (inactive) | 41.9 µM (inactive) | > 100 µM (inactive) | 53.7 µM (inactive) | 48.3 µM (inactive) | 58.1 µM (inactive) | 96.8 µM (inactive) | 36.6 µM (inactive) | 35.2 µM (inactive) | 57 µM (inactive) | 57.5 µM (inactive) | 53.6 µM (inactive)
2 | CC(C)C(NC(=O)C(Cc1ccccc1)NC(=O)[C@H]1CCC[C@H]1NC(=O)C(Cc1ccc(OC(C)(C)C)cc1)NC(=O)OC(C)(C)C)C(N)=O (stereo not given in full) | 20.1 µM (inactive) | 45.7 µM (inactive) | 16.6 µM (inactive) | 19.6 µM (inactive) | 16.5 µM (inactive) | 21.5 µM (inactive) | 15.6 µM (inactive) | 19.8 µM (inactive) | 20.7 µM (inactive) | > 10 µM (inactive) | 19.2 µM (inactive) | 25.1 µM (inactive) | 17.8 µM (inactive) | 81.1 µM (inactive) | 16.5 µM (inactive) | 9.95 µM (inactive) | 34.9 µM (inactive) | 20.9 µM (inactive) | 14.2 µM (inactive) | 47.4 µM (inactive)
3 | COc1ccc2c(c1)-c1nc(=S)n(CCN(C)C)c3ccc([N+](=O)[O-])c(c13)N2 | 0.515 µM (active) | 0.345 µM (active) | 1.09 µM (active) | 0.865 µM (active) | 0.809 µM (active) | 0.498 µM (active) | 0.738 µM (active) | 0.861 µM (active) | 1.23 µM (inactive) | 0.693 µM (active) | 0.365 µM (active) | 1.23 µM (inactive) | 1.06 µM (active) | 1.1 µM (active) | 0.824 µM (active) | 3.65 µM (inactive) | 0.419 µM (active) | 0.404 µM (active) | 1.08 µM (active) | 0.794 µM (active)
4 | O=C1C2CCCCC2C(=O)N1n1c(-c2ccccc2)n[nH]c1=O (stereo not given) | > 100 µM (inactive) | > 100 µM (inactive) | > 100 µM (inactive) | > 100 µM (inactive) | > 100 µM (inactive) | > 100 µM (inactive) | > 100 µM (inactive) | > 100 µM (inactive) | > 100 µM (inactive) | > 100 µM (inactive) | > 100 µM (inactive) | > 100 µM (inactive) | > 100 µM (inactive) | > 100 µM (inactive) | > 100 µM (inactive) | > 100 µM (inactive) | > 100 µM (inactive) | > 100 µM (inactive) | > 100 µM (inactive) | > 100 µM (inactive)
5 | CC(C)C(OC(=O)c1cc(NC(=S)c2ccccc2)ccc1Cl)C(C)C | 21 µM (inactive) | 14.9 µM (inactive) | 14.9 µM (inactive) | 16.1 µM (inactive) | 12.4 µM (inactive) | 9.31 µM (inactive) | 19.8 µM (inactive) | 17.3 µM (inactive) | 20.2 µM (inactive) | 20.4 µM (inactive) | 14.1 µM (inactive) | 16.4 µM (inactive) | 8.53 µM (inactive) | 13.1 µM (inactive) | 24.4 µM (inactive) | 14.2 µM (inactive) | 11.9 µM (inactive) | 21.8 µM (inactive) | 19.1 µM (inactive) | 11.4 µM (inactive)
6 | OC1NC2CC3NC(O)C(O)NC3CC2NC1O (stereo not given) | > 100 µM (inactive) | > 100 µM (inactive) | > 100 µM (inactive) | > 100 µM (inactive) | > 100 µM (inactive) | > 100 µM (inactive) | > 100 µM (inactive) | > 100 µM (inactive) | > 100 µM (inactive) | > 100 µM (inactive) | > 100 µM (inactive) | > 100 µM (inactive) | > 100 µM (inactive) | > 100 µM (inactive) | > 100 µM (inactive) | > 100 µM (inactive) | > 100 µM (inactive) | > 100 µM (inactive) | > 100 µM (inactive) | > 100 µM (inactive)
7 | COc1ccc(N2C(=O)C3c4[nH]c5ccc(OC)cc5c4C4CCC(c5ccccc5)CC4C3C2=O)cc1 (stereo not given) | 12.8 µM (inactive) | 9.48 µM (inactive) | 2.27 µM (inactive) | 6.19 µM (inactive) | 8.69 µM (inactive) | 4.04 µM (inactive) | 17.3 µM (inactive) | 19.6 µM (inactive) | 7.05 µM (inactive) | 11.4 µM (inactive) | 4.93 µM (inactive) | 16.7 µM (inactive) | 19.2 µM (inactive) | 10.9 µM (inactive) | 2.09 µM (inactive) | 22.4 µM (inactive) | 0.451 µM (active) | 3.82 µM (inactive) | 8.99 µM (inactive) | 29.6 µM (inactive)
8 | CCOC(=O)c1c(Br)c(-c2ccc(Br)cc2)c(Br)n1C | 23.6 µM (inactive) | 23.4 µM (inactive) | 14.7 µM (inactive) | 14.9 µM (inactive) | 19.5 µM (inactive) | 11.7 µM (inactive) | 7.16 µM (inactive) | 22.8 µM (inactive) | 13.6 µM (inactive) | 18.5 µM (inactive) | 28.4 µM (inactive) | 14.7 µM (inactive) | 19.4 µM (inactive) | 11.2 µM (inactive) | 21.3 µM (inactive) | 17.5 µM (inactive) | 3.22 µM (inactive) | 23.2 µM (inactive) | 18 µM (inactive) | 17.9 µM (inactive)
9 | O=C(Nc1noc(-c2ccccc2)n1)c1ccccc1CNc1noc(-c2ccccc2)n1 | > 100 µM (inactive) | > 100 µM (inactive) | > 100 µM (inactive) | > 100 µM (inactive) | > 100 µM (inactive) | > 100 µM (inactive) | > 100 µM (inactive) | > 100 µM (inactive) | > 100 µM (inactive) | > 100 µM (inactive) | > 100 µM (inactive) | > 100 µM (inactive) | > 100 µM (inactive) | > 100 µM (inactive) | > 100 µM (inactive) | > 100 µM (inactive) | > 100 µM (inactive) | > 100 µM (inactive) | > 100 µM (inactive) | > 100 µM (inactive)
10 | COc1cc(C2c3[nH]c4ccc(F)cc4c3C[C@H]3COC(=O)N23)cc(OC)c1O (stereo not given in full) | 6.65 µM (inactive) | 5.79 µM (inactive) | 6.89 µM (inactive) | 4.18 µM (inactive) | 14.1 µM (inactive) | 7.55 µM (inactive) | 5.43 µM (inactive) | 3.33 µM (inactive) | 22.1 µM (inactive) | 14.7 µM (inactive) | 4.36 µM (inactive) | 13.4 µM (inactive) | 9.16 µM (inactive) | 3.29 µM (inactive) | 2.93 µM (inactive) | 10.7 µM (inactive) | 0.47 µM (active) | 9.46 µM (inactive) | 6.47 µM (inactive) | 12.6 µM (inactive)
